Literature values, collected in patent US6680310B2, “Methods for preventing antipsychotic-induced weight gain” (Corcept Therapeutics, Inc., priority 2001, dated 2004).

Settings: in one study (Kawai, supra)

- fraction of the daily dose excreted in the urine: less than 0.5%
Compound: CC#C[C@]1(O)CC[C@H]2[C@@H]3CCC4=CC(=O)CCC4=C3[C@@H](c3ccc(N(C)C)cc3)C[C@@]21C [Mifepristone, 17-beta-hydroxy-11-beta-(4-dimethyl-aminophenyl)-17-alpha(1-propynyl)-estra-4,9-dien-3-one]
